From ChEMBL document CHEMBL5729675, “Sulfonamide compound or salt thereof” (2023) come the findings set out here.

Molecules are shown by their SMILES.

In this experiment the target is Ribonucleotide reductase (Homo sapiens, UniProt P23921+Q7LG56). Nature of the experiment: Human RNR Inhibition Effect: The inhibitory activity against the ribonucleotide reduction reaction (hereinafter referred to as RNR reaction) of the test compound was determined by measuring the formation of deoxycytidine diphosphate (hereinafter referred to as dCDP) from cytidine diphosphate (hereinafter referred to as CDP) by the following method.Human M1 subunit and human M2 subunit (mutant ….
Sequence of Ribonucleotide reductase (P23921 whole entry, looked up): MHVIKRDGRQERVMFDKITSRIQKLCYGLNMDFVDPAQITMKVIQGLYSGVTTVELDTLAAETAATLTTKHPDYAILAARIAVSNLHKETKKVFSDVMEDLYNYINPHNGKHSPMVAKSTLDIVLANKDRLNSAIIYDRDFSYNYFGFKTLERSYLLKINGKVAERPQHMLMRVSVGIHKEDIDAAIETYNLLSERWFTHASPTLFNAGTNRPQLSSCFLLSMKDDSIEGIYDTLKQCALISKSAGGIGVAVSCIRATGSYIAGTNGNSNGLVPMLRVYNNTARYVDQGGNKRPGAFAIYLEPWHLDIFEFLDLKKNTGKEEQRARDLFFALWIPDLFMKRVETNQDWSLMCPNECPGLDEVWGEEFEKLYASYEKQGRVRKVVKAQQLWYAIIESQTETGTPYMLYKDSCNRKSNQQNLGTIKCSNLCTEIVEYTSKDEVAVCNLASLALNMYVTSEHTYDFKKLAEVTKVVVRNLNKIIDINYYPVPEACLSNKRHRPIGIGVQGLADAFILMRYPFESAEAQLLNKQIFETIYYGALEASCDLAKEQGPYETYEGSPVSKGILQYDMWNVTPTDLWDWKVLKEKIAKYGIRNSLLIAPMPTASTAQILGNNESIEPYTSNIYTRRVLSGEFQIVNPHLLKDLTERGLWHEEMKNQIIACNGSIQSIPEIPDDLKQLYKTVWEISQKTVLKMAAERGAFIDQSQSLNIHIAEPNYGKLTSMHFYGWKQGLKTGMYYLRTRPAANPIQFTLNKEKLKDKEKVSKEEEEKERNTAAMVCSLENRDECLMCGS
Sequence of Ribonucleotide reductase (Q7LG56 whole entry, looked up): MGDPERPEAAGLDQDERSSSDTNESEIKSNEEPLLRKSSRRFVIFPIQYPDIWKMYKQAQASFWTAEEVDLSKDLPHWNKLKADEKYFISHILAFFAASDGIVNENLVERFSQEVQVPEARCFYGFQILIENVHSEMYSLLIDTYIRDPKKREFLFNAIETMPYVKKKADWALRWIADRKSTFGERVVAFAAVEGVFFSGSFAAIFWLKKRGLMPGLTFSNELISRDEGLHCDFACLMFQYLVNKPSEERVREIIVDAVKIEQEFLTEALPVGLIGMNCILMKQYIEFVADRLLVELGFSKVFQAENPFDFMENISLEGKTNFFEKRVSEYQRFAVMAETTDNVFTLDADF
Regarding `Cc1c(Cl)ccc(F)c1[C@@H](C)[C@H](NS(=O)(=O)c1ccc(Br)cc1C(N)=O)c1n[nH]c(=O)o1`, the IC50 turned out to be 150 nM. Turning to `Cc1ccc(F)c([C@@H](C)[C@H](NS(=O)(=O)c2ccc(Cl)cc2C(N)=O)c2n[nH]c(=O)o2)c1Cl`, the half-inhibitory concentration (IC50) stood at 500 nM.

Compound `CCN1CCOc2c(S(=O)(=O)N[C@H](c3n[nH]c(=O)o3)[C@H](C)c3c(F)ccc(C)c3C)ccc(Cl)c21` displayed a concentration for half-maximal inhibition (IC50) of 110 nM. In the case of `Cc1ccc(F)c([C@@H](C)[C@H](NS(=O)(=O)c2ccc(Br)cc2C(N)=O)c2n[nH]c(=O)o2)c1C` it was 60 nM; in that of `Cc1ccc(F)c([C@@H](C)[C@H](NS(=O)(=O)c2cc(C(=O)N3CCOCC3)ccc2C(N)=O)c2n[nH]c(=O)o2)c1C`, 110 nM. Next, `COc1cc(Cl)ccc1S(=O)(=O)N[C@H](c1n[nH]c(=O)o1)C(C)c1c(F)c(F)cc(C)c1Br` (some centres undefined): 420 nM; `COc1cc(Cl)ccc1S(=O)(=O)N[C@H](c1n[nH]c(=O)o1)[C@H](C)c1cccc2cccc(C)c12`: 240 nM. In turn, `Cc1ccc(F)c([C@@H](C)[C@H](NS(=O)(=O)c2cc(C(=O)O)c(Cl)cc2C(N)=O)c2n[nH]c(=O)o2)c1C` had an IC50 of 190 nM. Next, `Cc1cc(F)cc([C@@H](C)[C@H](NS(=O)(=O)c2ccc(Cl)cc2C(N)=O)c2n[nH]c(=O)o2)c1C`: 450 nM. For `Cc1cccc([C@@H](C)[C@H](NS(=O)(=O)c2ccc(Br)cc2C(N)=O)c2n[nH]c(=O)o2)c1C`, the concentration for half-maximal inhibition (IC50) came to 380 nM. As to `Cc1c(Cl)ccc(F)c1[C@@H](C)[C@H](NS(=O)(=O)c1ccc(Cl)cc1C(N)=O)c1n[nH]c(=O)o1`, the 50% inhibitory concentration (IC50) worked out at 250 nM. In the case of `C[C@H](c1cccc2ccccc12)[C@H](NS(=O)(=O)c1ccc(Cl)cc1Cl)c1n[nH]c(=O)o1` it was 840 nM; in that of `Cc1ccc(F)c([C@@H](C)[C@H](NS(=O)(=O)c2ccc(Cl)cc2C#N)c2n[nH]c(=O)o2)c1C`, 360 nM; in that of `COc1cc(Cl)ccc1S(=O)(=O)N[C@H](c1n[nH]c(=O)o1)[C@H](C)c1cccc(C)c1C(C)C`, 840 nM. `C[C@H](c1c(F)ccc2ccccc12)[C@H](NS(=O)(=O)c1ccc(Br)cc1C(N)=O)c1n[nH]c(=O)o1` gave a half-maximal inhibitory concentration (IC50) of 100 nM. Next, `CCc1ccc(F)c([C@@H](C)[C@H](NS(=O)(=O)c2ccc(Br)cc2C(N)=O)c2n[nH]c(=O)o2)c1C`: 100 nM; `Cc1ccc(F)c([C@@H](C)[C@H](NS(=O)(=O)c2ccc(Br)cc2C#N)c2n[nH]c(=O)o2)c1C`: 200 nM; `C[C@H](c1c(F)ccc2ccccc12)[C@H](NS(=O)(=O)c1ccc(Cl)cc1C(N)=O)c1n[nH]c(=O)o1`: 110 nM. Next, `Cc1ccc(F)c([C@@H](C)[C@H](NS(=O)(=O)c2ccc(Cl)cc2-c2ccno2)c2n[nH]c(=O)o2)c1C`: 230 nM; `Cc1ccc(F)c([C@@H](C)[C@H](NS(=O)(=O)c2cc(C(=O)N(C)C)ccc2C(N)=O)c2n[nH]c(=O)o2)c1C`: 140 nM. In the case of `Cc1ccc(F)c([C@@H](C)[C@H](NS(=O)(=O)c2ccccc2C#N)c2n[nH]c(=O)o2)c1C` it was 640 nM; in that of `Cc1c(Br)ccc(F)c1[C@@H](C)[C@H](NS(=O)(=O)c1ccc(C(F)(F)F)cc1C(N)=O)c1n[nH]c(=O)o1`, 200 nM; in that of `COc1cc(Cl)ccc1S(=O)(=O)N[C@H](c1n[nH]c(=O)o1)[C@H](C)c1c(F)ccc2ccccc12`, 200 nM.

`Cc1c(F)ccc(F)c1[C@@H](C)[C@H](NS(=O)(=O)c1ccc(Cl)cc1C(N)=O)c1n[nH]c(=O)o1`: the IC50 came out at 500 nM. `COC(=O)c1nc(S(=O)(=O)N[C@H](c2n[nH]c(=O)o2)[C@H](C)c2c(F)ccc(C)c2C)ccc1Cl` came in with an IC50 of 60 nM. Consider `Cc1c(Br)ccc(F)c1[C@@H](C)[C@H](NS(=O)(=O)c1ccc(Cl)cc1C(N)=O)c1n[nH]c(=O)o1`, for which the IC50 worked out at 150 nM. Regarding `C[C@H](c1cccc2c1CCCC2)[C@H](NS(=O)(=O)c1ccc(Cl)cn1)c1n[nH]c(=O)o1`, the IC50 stood at 770 nM. Regarding `Cc1ccc(F)c([C@@H](C)[C@H](NS(=O)(=O)c2ccc(Cl)c3c2OCC(=O)N3CC(F)F)c2n[nH]c(=O)o2)c1C`, half-maximal inhibition (IC50) required 130 nM. In the case of `CCc1ccc(F)c([C@@H](C)[C@H](NS(=O)(=O)c2ccc(Cl)cc2C(N)=O)c2n[nH]c(=O)o2)c1C` it was 180 nM. Next, `Cc1c(C(F)(F)F)ccc(F)c1[C@@H](C)[C@H](NS(=O)(=O)c1ccc(Cl)cc1C(N)=O)c1n[nH]c(=O)o1`: 550 nM; `Cc1ccc(F)c([C@@H](C)[C@H](NS(=O)(=O)c2cnc(Cl)cc2C(N)=O)c2n[nH]c(=O)o2)c1C`: 130 nM.

Take `Cc1ccc(F)c([C@@H](C)[C@H](NS(=O)(=O)c2ccc(Cl)c3c2OCCC3=O)c2n[nH]c(=O)o2)c1C`: the midpoint of inhibition, the IC50, lay at 150 nM. Next, `COc1cc(Cl)ccc1S(=O)(=O)N[C@H](c1n[nH]c(=O)o1)[C@H](C)c1c(C)c(C)cc(F)c1F`: 160 nM. Next, `Cc1c(C2CC2)ccc(F)c1[C@@H](C)[C@H](NS(=O)(=O)c1ccc(Cl)cc1C(N)=O)c1n[nH]c(=O)o1`: 160 nM; `COc1cc(Cl)ccc1S(=O)(=O)N[C@H](c1n[nH]c(=O)o1)[C@H](C)c1c(F)ccc(C#N)c1C`: 840 nM; `Cc1cccc([C@@H](C)[C@H](NS(=O)(=O)c2ccc(Cl)cc2C(N)=O)c2n[nH]c(=O)o2)c1C`: 300 nM.

`Cc1ccc(F)c([C@@H](C)[C@H](NS(=O)(=O)c2ccc(C(F)(F)F)cc2C(N)=O)c2n[nH]c(=O)o2)c1C` gave a half-maximal inhibitory concentration (IC50) of 100 nM. Next, `Cc1ccc(F)c([C@@H](C)[C@H](NS(=O)(=O)c2c(F)cccc2F)c2n[nH]c(=O)o2)c1C`: 960 nM; `Cc1ccc(F)c([C@@H](C)[C@H](NS(=O)(=O)c2c(F)cc(Cl)cc2F)c2n[nH]c(=O)o2)c1C`: 270 nM.

As to `Cc1ccc(F)c([C@@H](C)[C@H](NS(=O)(=O)c2cccc3c2OCCN3C(=O)C2CC2)c2n[nH]c(=O)o2)c1C`, the IC50 came to 290 nM. `CC1CCc2cccc(C(C)[C@H](NS(=O)(=O)c3ccc(Br)cn3)c3n[nH]c(=O)o3)c21` (some centres undefined) returned an IC50 of 600 nM. Next, `C[C@H](c1cccc2c1CCC2)[C@H](NS(=O)(=O)c1ccc(Br)cc1F)c1n[nH]c(=O)o1`: 990 nM. Next, `Cc1ccc(F)c([C@@H](C)[C@H](NS(=O)(=O)c2ccc(Cl)c3c2C(=O)CCC3)c2n[nH]c(=O)o2)c1C`: 240 nM. Next, `Cc1ccc(F)c([C@@H](C)[C@H](NS(=O)(=O)c2ccc(Cl)c3c2OCC(=O)N3C)c2n[nH]c(=O)o2)c1C`: 100 nM.

In turn, `Cc1ccc(S(=O)(=O)N[C@H](c2n[nH]c(=O)o2)[C@H](C)c2c(F)ccc(C)c2C)c(C(N)=O)c1` had an IC50 of 140 nM. For `Cc1ccc(F)c([C@@H](C)[C@H](NS(=O)(=O)c2ccc(Cl)c(C#N)n2)c2n[nH]c(=O)o2)c1C`, the IC50 came out at 160 nM. In the case of `Cc1c(Br)ccc(F)c1[C@@H](C)[C@H](NS(=O)(=O)c1ccc(Br)cc1C(N)=O)c1n[nH]c(=O)o1` it was 130 nM; in that of `Cc1ccc(F)c([C@@H](C)[C@H](NS(=O)(=O)c2cc(C(=O)N(C)C)c(Cl)cc2C(N)=O)c2n[nH]c(=O)o2)c1C`, 40 nM; in that of `Cc1cccc2cccc([C@@H](C)[C@H](NS(=O)(=O)c3ccc(Cl)c4c3OCCC4(F)F)c3n[nH]c(=O)o3)c12`, 280 nM. In the case of `Cc1ccc(F)c([C@@H](C)[C@H](NS(=O)(=O)c2ccc(C3CC3)cc2C(N)=O)c2n[nH]c(=O)o2)c1C` it was 130 nM. `Cc1ccc(S(=O)(=O)N[C@H](c2n[nH]c(=O)o2)[C@H](C)c2c(F)ccc3ccccc23)c(C(N)=O)c1` displayed an IC50 of 170 nM. In the case of `CCc1ccc(S(=O)(=O)N[C@H](c2n[nH]c(=O)o2)[C@H](C)c2c(F)ccc(C)c2C)c(C(N)=O)c1`, the 50% inhibitory concentration (IC50) is 130 nM. On to `CCc1cccc([C@@H](C)[C@H](NS(=O)(=O)c2ccc(Cl)cc2OC)c2n[nH]c(=O)o2)c1C`, for which the IC50 came out at 400 nM. Next, `Cc1ccc(F)c([C@@H](C)[C@H](NS(=O)(=O)c2cccc3c2OC(C)(C)CC3=O)c2n[nH]c(=O)o2)c1C`: 240 nM; `CC(=O)OC1(C)CCOc2c(S(=O)(=O)N[C@H](c3n[nH]c(=O)o3)[C@H](C)c3c(F)ccc(Cl)c3C)ccc(Cl)c21` (some centres undefined): 300 nM. As to `Cc1ccc(F)c([C@@H](C)[C@H](NS(=O)(=O)c2ccc(Cl)nc2C(N)=O)c2n[nH]c(=O)o2)c1C`, the half-inhibitory concentration (IC50) worked out at 190 nM. In the case of `C[C@H](c1cc(F)cc2ccccc12)[C@H](NS(=O)(=O)c1ccc(Cl)cc1C(N)=O)c1n[nH]c(=O)o1` it was 600 nM.

On to `COc1cc(Cl)ccc1S(=O)(=O)N[C@H](c1n[nH]c(=O)o1)[C@H](C)c1c(F)ccc(C)c1C`, for which the IC50 was determined as 140 nM.

In turn, `Cc1ccc(F)c([C@@H](C)[C@H](NS(=O)(=O)c2ccc(Cl)c3c2OCCN3CC(F)F)c2n[nH]c(=O)o2)c1C` had an IC50 of 140 nM. In the case of `COc1cc(Cl)ccc1S(=O)(=O)N[C@H](c1n[nH]c(=O)o1)[C@H](C)c1cccc2c1CC(C)C2` (some centres undefined) it was 700 nM; in that of `Cc1ccc(F)c([C@@H](C)[C@H](NS(=O)(=O)c2ccccc2C(N)=O)c2n[nH]c(=O)o2)c1C`, 260 nM.

`Cc1ccc(F)c([C@@H](C)[C@H](NS(=O)(=O)c2ccc(Cl)c(C(N)=O)n2)c2n[nH]c(=O)o2)c1C` gave a 50% inhibitory concentration (IC50) of 100 nM. With `Cc1cc(F)c(F)c([C@@H](C)[C@H](NS(=O)(=O)c2ccc(Cl)cc2C(N)=O)c2n[nH]c(=O)o2)c1C`, the half-maximal inhibitory concentration (IC50) is 140 nM.

With `C[C@H](c1cccc2c1-c1ccccc1C2)[C@H](NS(=O)(=O)c1ccc(Br)cn1)c1n[nH]c(=O)o1`, the IC50 is 850 nM. Turning to `COc1c(S(=O)(=O)N[C@H](c2n[nH]c(=O)o2)[C@H](C)c2c(F)ccc(C)c2C)ccc(Cl)c1C(C)(C)OC(C)=O`, the 50% inhibitory concentration (IC50) was 430 nM.

For `CC(=O)OC1(C(F)(F)F)CCOc2c1cccc2S(=O)(=O)N[C@H](c1n[nH]c(=O)o1)[C@H](C)c1c(F)ccc(C)c1C` (some centres undefined), the IC50 is 270 nM. With `Cc1ccc(F)c([C@@H](C)[C@H](NS(=O)(=O)c2ccc(Cl)cc2C(N)=O)c2n[nH]c(=O)o2)c1`, the IC50 stood at 240 nM.

`COC(=O)c1cc(Cl)ccc1S(=O)(=O)N[C@H](c1n[nH]c(=O)o1)[C@H](C)c1c(F)ccc(C)c1C` registered a half-maximal inhibitory concentration (IC50) of 410 nM.

Take `C[C@H](c1cccc2c1Cc1ccccc1-2)[C@H](NS(=O)(=O)c1ccc(Br)cn1)c1n[nH]c(=O)o1`: the IC50 was 800 nM.

By IC50 is commonly meant the midpoint of a concentration-inhibition curve.
